Reference: ChEMBL document CHEMBL4837243, “Discovery of TDI-10229: A Potent and Orally Bioavailable Inhibitor of Soluble Adenylyl Cyclase (sAC, ADCY10)” (ACS Med Chem Lett, 2021)
Values after ≈ are worked out from the molar mass of the structure shown.

Tests used:
[1] = biological target: Adenylate cyclase type 10 (Homo sapiens, UniProt Q96PN6)
Description: Inhibition of human soluble adenylyl cyclase assessed as reduction in cAMP levels in the presence of alpha-32p labeled ATP by biochemical assay

[2] = Permeability of the compound in PRISMA HT buffer at pH 7.4 at 10 umol/L incubated for 3 hrs bt PAMPA based LC/MS/MS analysis; format: ADME; conditions: dose 10 µmol/L, read-out: permeability
[3] = Octanol-water partition coefficient, logD of the compound at pH 7.4 by HPLC analysis; format: physicochemical
[4] = Kinetic solubility of compound by UV- absorbance analysis
[5] = Bioavailability in mouse; format: ADME, organism-based; conditions: in vivo, dose 20 mg/kg
[6] = AUC in CD1 mouse at 20 mg/kg, po measured up to 24 hrs; format: ADME, organism-based; set-up: route oral, dose 20 mg/kg, time <=24; conditions: in vivo
[7] = AUC in CD1 mouse at 20 mg/kg, ip measured up to 24 hrs; format: ADME, organism-based; set-up: route intraperitoneal, dose 20 mg/kg, time <=24; conditions: in vivo
[8] = Cmax in CD1 mouse at 20 mg/kg, po measured up to 24 hrs; format: ADME, organism-based; set-up: route oral, dose 20 mg/kg, time <=24; conditions: in vivo
[9] = Cmax in CD1 mouse at 20 mg/kg, ip measured up to 24 hrs; format: ADME, organism-based; set-up: route intraperitoneal, dose 20 mg/kg, time <=24; conditions: in vivo
[10] = Mean residence time in CD1 mouse at 20 mg/kg, po measured up to 24 hrs; format: ADME, organism-based; conditions: in vivo
[11] = Mean residence time in CD1 mouse at 20 mg/kg, ip measured up to 24 hrs; format: ADME, organism-based; conditions: in vivo
[12] = Oral bioavailability in mouse; format: ADME, organism-based; conditions: in vivo
[13] = Clearance in mouse liver microsomes; format: ADME, Microsome; conditions: read-out: CLH
[14] = Clearance in human liver microsomes; format: ADME, Microsome; conditions: read-out: CLH

Adenylate cyclase type 10, sequence (Q96PN6 whole entry): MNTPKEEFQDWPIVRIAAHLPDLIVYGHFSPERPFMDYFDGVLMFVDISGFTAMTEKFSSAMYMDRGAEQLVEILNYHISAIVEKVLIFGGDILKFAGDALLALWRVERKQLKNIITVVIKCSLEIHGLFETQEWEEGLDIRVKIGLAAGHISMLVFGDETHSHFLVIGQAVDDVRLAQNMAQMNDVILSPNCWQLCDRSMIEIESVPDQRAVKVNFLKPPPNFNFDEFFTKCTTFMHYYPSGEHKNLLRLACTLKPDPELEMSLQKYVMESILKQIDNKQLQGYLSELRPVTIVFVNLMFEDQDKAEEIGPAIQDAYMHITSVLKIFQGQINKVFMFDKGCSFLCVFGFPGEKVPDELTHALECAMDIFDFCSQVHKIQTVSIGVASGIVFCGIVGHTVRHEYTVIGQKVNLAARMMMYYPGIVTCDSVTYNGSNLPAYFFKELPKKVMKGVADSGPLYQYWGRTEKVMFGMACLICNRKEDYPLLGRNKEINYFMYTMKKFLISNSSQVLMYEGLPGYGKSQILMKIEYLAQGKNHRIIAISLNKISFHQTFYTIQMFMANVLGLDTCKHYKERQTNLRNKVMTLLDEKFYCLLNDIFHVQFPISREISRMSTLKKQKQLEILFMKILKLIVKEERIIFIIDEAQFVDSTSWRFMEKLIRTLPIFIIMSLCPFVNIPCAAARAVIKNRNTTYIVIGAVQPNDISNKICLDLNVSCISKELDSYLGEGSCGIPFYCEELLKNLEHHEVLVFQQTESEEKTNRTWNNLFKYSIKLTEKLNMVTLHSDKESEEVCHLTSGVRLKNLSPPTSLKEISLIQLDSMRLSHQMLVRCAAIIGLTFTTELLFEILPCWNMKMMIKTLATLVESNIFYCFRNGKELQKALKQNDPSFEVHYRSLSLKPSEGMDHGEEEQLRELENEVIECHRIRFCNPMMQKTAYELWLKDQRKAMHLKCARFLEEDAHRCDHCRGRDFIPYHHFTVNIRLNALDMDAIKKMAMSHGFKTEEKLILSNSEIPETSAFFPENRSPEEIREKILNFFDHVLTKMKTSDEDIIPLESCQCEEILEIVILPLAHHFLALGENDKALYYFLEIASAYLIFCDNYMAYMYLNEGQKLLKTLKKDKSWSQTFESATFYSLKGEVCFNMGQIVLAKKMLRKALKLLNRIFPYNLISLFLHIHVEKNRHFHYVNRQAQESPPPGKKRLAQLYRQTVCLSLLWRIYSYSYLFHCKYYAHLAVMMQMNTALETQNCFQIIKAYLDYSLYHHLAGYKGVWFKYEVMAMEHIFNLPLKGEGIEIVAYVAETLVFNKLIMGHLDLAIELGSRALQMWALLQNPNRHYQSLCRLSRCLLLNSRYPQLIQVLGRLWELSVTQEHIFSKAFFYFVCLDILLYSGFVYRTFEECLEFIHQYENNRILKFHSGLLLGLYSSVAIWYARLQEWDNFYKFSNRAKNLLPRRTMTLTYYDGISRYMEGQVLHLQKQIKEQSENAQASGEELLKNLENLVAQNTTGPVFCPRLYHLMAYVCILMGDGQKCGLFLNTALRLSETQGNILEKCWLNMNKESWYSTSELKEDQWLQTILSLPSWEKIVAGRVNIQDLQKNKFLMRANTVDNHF

Structure (SMILES) | IC50 [1] [µM] | Papp at 3 h, 10 µM [2] [×10⁻⁶ cm/s] | logD [3] | solubility kinetic [4] [µg/mL] | also measured
Cc1cc(-c2nn(C)cc2Cc2cccs2)nc(N)n1 | > 1 | – | – | – | –
Cc1c(Cc2cccs2)c(-c2cc(Cl)nc(N)n2)nn1C | – | 28 | 2.7 | 0.38 (≈ 1.19 µM) | –
Cn1cc(Cc2cccs2)c(-c2cc(Cl)nc(N)n2)n1 | – | 25.8 | 2.5 | 6.3 (≈ 20.6 µM) | –
Cc1c(Cc2ccnn2C)c(-c2cc(Cl)nc(N)n2)nn1C | > 10 | – | – | – | –
CN(C)Cc1c(Cc2ccccc2)c(-c2cc(Cl)nc(N)n2)nn1C | > 10 | – | – | – | –
Cc1c(Cc2ccccc2)c(-c2cc(Cl)nc(N)n2)nn1C | – | 27.4 | 2.9 | 1.3 (≈ 4.14 µM) | bioavailability [5]: 59%; AUC at 24 h [6]: 94 µM·h; AUC at 24 h [7]: 72 µM·h; Cmax [8]: 15.5 µM; Cmax [9]: 45 µM; MRT [10]: 3.95 h; MRT [11]: 2.82 h
Cc1ccc(Cc2cn(C)nc2-c2cc(Cl)nc(N)n2)s1 | > 1 | – | – | – | –
CNC(=O)c1c(Cc2ccccc2)c(-c2cc(Cl)nc(N)n2)nn1C | > 10 | – | – | – | –
Cn1cc(Cc2cccc(F)c2)c(-c2cc(Cl)nc(N)n2)n1 | – | 25.7 | 2.8 | 7.5 (≈ 23.6 µM) | –
Nc1nc(Cl)cc(N(Cc2cccs2)C2CC2)n1 | – | – | – | – | bioavailability [12]: < 5%; microsomal CLint [13]: > 768 µL/min/mg; microsomal CLint [14]: 360 µL/min/mg
